Measurements published in US6124269A, “2-Halo-6-O-substituted ketolide derivatives” (priority 1998, dated 2000).
Values after ≈ are worked out from the molar mass of the structure shown.

Columns and labels:
Type in all cases: cell-based
[1] = tested on: Micrococcus luteus ATCC 9341; assay: In vitro agar dilution MIC, organism code OO; settings: Table 1B, unit assumed
Protocol: (§1) Representative compounds of the present invention were assayed in vitro for antibacterial activity as follows: Twelve petri dishes containing successive aqueous dilutions of the test compound mixed with 10 mL of sterilized Brain Heart Infusion (BHI) agar (Difco 0418-01-5) were prepared. Each plate was inoculated with 1:100 (or 1:10 for slow-growing strains, such as Micrococcus and Streptococcus) dilutions of up to 32 different microorganisms, using a Steers replicator block. The inoculated plates were incubated at 35-37° C. for 20 to 24 hours. In addition, a control plate, using BHI agar containing no test compound, was prepared and incubated at the beginning and end of each test.
(§2) An additional plate containing a compound having known susceptibility patterns for the organisms being tested and belonging to the same antibiotic class as the test compound was also prepared and incubated as a further control, as well as to provide test-to-test comparability.
(§3) After incubation, each plate was visually inspected. The minimum inhibitory concentration (MIC) was defined as the lowest concentration of drug yielding no growth, a slight haze, or sparsely isolated colonies on the inoculum spot as compared to the growth control.

[2] = tested on: Streptococcus pneumoniae ATCC 6303; assay: In vitro agar dilution MIC, organism code XX; settings: Table 1B, unit assumed
Protocol: as §1, §2, §3

[3] = tested on: Enterococcus faecium ATCC 8043; assay: In vitro agar dilution MIC, organism code II; settings: Table 1B, unit assumed
Protocol: as §1, §2, §3

[4] = tested on: Staphylococcus epidermidis 3519; assay: In vitro agar dilution MIC, organism code HH; settings: Table 1B, in µg/mL (unit assumed)
Protocol: as §1, §2, §3

[5] = tested on: Streptococcus agalactiae CMX 508; assay: In vitro agar dilution MIC, organism code KK; settings: Table 1B, unit assumed
Protocol: as §1, §2, §3

Escherichia coli DC-2 = assay: In vitro agar dilution MIC, organism code SS; settings: Table 1B, unit assumed
Protocol: as §1, §2, §3

[6] = tested on: Streptococcus pyogenes EES61; assay: In vitro agar dilution MIC, organism code LL; settings: Table 1B, unit assumed
Protocol: as §1, §2, §3

[7] = tested on: Streptococcus pneumoniae GYR 1171; assay: In vitro agar dilution MIC, organism code YY; settings: Table 1B, unit assumed
Protocol: as §1, §2, §3

[8] = tested on: Streptococcus pyogenes PIU 2548; assay: In vitro agar dilution MIC, organism code NN; settings: Table 1B, unit assumed
Protocol: as §1, §2, §3

[9] = tested on: Streptococcus pyogenes 930; assay: In vitro agar dilution MIC, organism code MM; settings: Table 1B, unit assumed
Protocol: as §1, §2, §3

[10] = tested on: Staphylococcus aureus ATCC 6538P; assay: In vitro agar dilution MIC, organism code AA; settings: Table 1B, unit assumed
Protocol: as §1, §2, §3

Candida albicans CCH 442 = assay: In vitro agar dilution MIC, organism code TT; settings: Table 1B, unit assumed
Protocol: as §1, §2, §3

[11] = tested on: Staphylococcus aureus CMX 553; assay: In vitro agar dilution MIC, organism code FF; settings: Table 1B, unit assumed
Protocol: as §1, §2, §3

[12] = tested on: Staphylococcus aureus 1775; assay: In vitro agar dilution MIC, organism code GG; settings: Table 1B, unit assumed
Protocol: as §1, §2, §3

[13] = tested on: Streptococcus bovis A-5169; assay: In vitro agar dilution MIC, organism code JJ; settings: Table 1B, unit assumed
Protocol: as §1, §2, §3

Escherichia coli JUHL = assay: In vitro agar dilution MIC, organism code QQ; settings: Table 1B, in µg/mL (unit assumed)
Protocol: as §1, §2, §3

[14] = tested on: Nocardia asteroides ATCC 9970; assay: In vitro agar dilution MIC, organism code VV; settings: Table 1B, in µg/mL (unit assumed)
Protocol: as §1
as §2, with “comparability. Erythromycin A was used for this purpose.” for “comparability.”
as §3

[15] = tested on: Haemophilis influenzae DILL AMP R; assay: In vitro agar dilution MIC, organism code WW; settings: Table 1B, unit assumed
Protocol: as §1, §2, §3

[16] = tested on: Streptococcus pneumoniae 5979; assay: In vitro agar dilution MIC, organism code ZZ; settings: Table 1B, unit assumed
Protocol: as §1, §2, §3

[17] = tested on: Staphylococcus aureus A5177; assay: In vitro agar dilution MIC, organism code BB; settings: Table 1B, in µg/mL (unit assumed)
Protocol: as §1, §2, §3

[18] = tested on: Mycobacterium smegmatis ATCC 114; assay: In vitro agar dilution MIC, organism code UU; settings: Table 1B, in µg/mL (unit assumed)
Protocol: as §1, §2, §3

[19] = tested on: Micrococcus luteus ATCC 4698; assay: In vitro agar dilution MIC, organism code PP; settings: Table 1B, in µg/mL (unit assumed)
Protocol: as §1, §2, §3

[20] = tested on: Staphylococcus aureus CMX 642A; assay: In vitro agar dilution MIC, organism code DD; settings: Table 1B, unit assumed
Protocol: as §1, §2, §3

[21] = tested on: Staphylococcus aureus A-5278; assay: In vitro agar dilution MIC, organism code CC; settings: Table 1B, unit assumed
Protocol: as §1, §2, §3

[22] = tested on: Streptococcus pneumoniae 5649; assay: In vitro agar dilution MIC, organism code ZZA; settings: Table 1B, unit assumed
Protocol: as §1, §2, §3

Escherichia coli SS = assay: In vitro agar dilution MIC, organism code RR; settings: Table 1B, in µg/mL (unit assumed)
Protocol: as §1, §2, §3

[23] = tested on: Staphylococcus aureus NCTC10649M; assay: In vitro agar dilution MIC, organism code EE; settings: Table 1B, unit assumed
Protocol: as §1, §2, §3

Row | Compound | MIC [1] [µg/mL] | MIC [2] [µg/mL] | MIC [3] [µg/mL] | MIC [4] | MIC [5] [µg/mL] | MIC (Escherichia coli DC-2) [µg/mL] | MIC [6] [µg/mL] | MIC [7] [µg/mL] | MIC [8] [µg/mL] | MIC [9] [µg/mL] | MIC [10] [µg/mL] | MIC (Candida albicans CCH 442) [µg/mL] | MIC [11] [µg/mL] | MIC [12] [µg/mL] | MIC [13] [µg/mL] | MIC (Escherichia coli JUHL) | MIC [14] | MIC [15] [µg/mL] | MIC [16] [µg/mL] | MIC [17] | further results
1 | CC[C@H]1OC(=O)[C@@](C)(F)C(=O)[C@H](C)[C@@H](O[C@@H]2O[C@H](C)C[C@H](N(C)C)[C@H]2O)[C@](C)(OC/C=C/c2cnc3ccc(N)cc3c2)C[C@@H](C)C(=O)[C@H](C)[C@H]2NC(=O)O[C@@]21C [Example 9] | ≤ 0.005 | 0.015 (≈ 0.0188 µM) | 0.01 (≈ 0.0125 µM) | 0.02 | ≤ 0.005 | 25 (≈ 31.3 µM) | ≤ 0.005 | 0.015 (≈ 0.0188 µM) | 0.1 (≈ 0.125 µM) | 0.2 (≈ 0.25 µM) | 0.02 (≈ 0.025 µM) | > 100 | 0.02 (≈ 0.025 µM) | > 100 | ≤ 0.005 | 25 | < 0.005 | 2 (≈ 2.5 µM) | 0.25 (≈ 0.313 µM) | 0.02 | MIC [18]: 0.78; MIC [19]: 0.02; MIC [20]: 0.02 µg/mL (≈ 0.025 µM); MIC [21]: > 100 µg/mL; MIC [22]: 1 µg/mL (≈ 1.25 µM); MIC (Escherichia coli SS): 0.2; MIC [23]: 0.05 µg/mL (≈ 0.0626 µM)
2 | CC[C@H]1OC(=O)[C@@](C)(F)C(=O)[C@H](C)[C@@H](O[C@@H]2O[C@H](C)C[C@H](N(C)C)[C@H]2O)[C@](C)(OC/C=C/c2cnc3ccc(NC(=O)OC(C)(C)C)cc3c2)C[C@@H](C)C(=O)[C@H](C)[C@H]2NC(=O)O[C@@]21C [Example 8] | 0.05 (≈ 0.0556 µM) | 0.06 (≈ 0.0667 µM) | 0.2 (≈ 0.222 µM) | 0.39 | 0.05 (≈ 0.0556 µM) | > 100 | 0.05 (≈ 0.0556 µM) | 0.06 (≈ 0.0667 µM) | 0.39 (≈ 0.434 µM) | 12.5 (≈ 13.9 µM) | 0.39 (≈ 0.434 µM) | > 100 | 0.39 (≈ 0.434 µM) | > 100 | 0.05 (≈ 0.0556 µM) | > 100 | 0.78 | 16 (≈ 17.8 µM) | 16 (≈ 17.8 µM) | 0.39 | MIC [18]: 0.78; MIC [19]: 0.39; MIC [20]: 0.39 µg/mL (≈ 0.434 µM); MIC [21]: > 100 µg/mL; MIC [22]: 1 µg/mL (≈ 1.11 µM); MIC (Escherichia coli SS): 6.2; MIC [23]: 0.39 µg/mL (≈ 0.434 µM)
3 | CC[C@H]1OC(=O)C(C)(F)C(=O)[C@H](C)[C@@H](O[C@@H]2O[C@H](C)C[C@H](N(C)C)[C@H]2O)[C@](C)(OCC#Cc2cnc3ccccc3c2)C[C@@H](C)C(=O)[C@H](C)[C@H]2NC(=O)O[C@@]21C (stereo partly drawn) [Example 26] | 0.02 (≈ 0.0256 µM) | ≤ 0.004 | 0.02 (≈ 0.0256 µM) | 0.05 | 0.02 (≈ 0.0256 µM) | 25 (≈ 32 µM) | 0.02 (≈ 0.0256 µM) | ≤ 0.004 | 0.05 (≈ 0.0639 µM) | 0.1 (≈ 0.128 µM) | 0.05 (≈ 0.0639 µM) | > 100 | 0.05 (≈ 0.0639 µM) | > 100 | 0.01 (≈ 0.0128 µM) | 25 | 0.01 | 2 (≈ 2.56 µM) | 16 (≈ 20.5 µM) | 0.05 | MIC [18]: 0.2; MIC [19]: 0.05; MIC [20]: 0.05 µg/mL (≈ 0.0639 µM); MIC [21]: > 100 µg/mL; MIC [22]: 0.25 µg/mL (≈ 0.32 µM); MIC (Escherichia coli SS): 0.2; MIC [23]: 0.1 µg/mL (≈ 0.128 µM)
4 | CC[C@H]1OC(=O)[C@@](C)(F)C(=O)[C@H](C)[C@@H](O[C@@H]2O[C@H](C)C[C@H](N(C)C)[C@H]2O)[C@](C)(OC/C=C/c2cnc3ccc(C=NN)cc3c2)C[C@@H](C)C(=O)[C@H](C)[C@H]2NC(=O)O[C@@]21C [Example 19] | 0.02 (≈ 0.0242 µM) | 0.06 (≈ 0.0726 µM) | 0.05 (≈ 0.0605 µM) | 0.2 | 0.02 (≈ 0.0242 µM) | 100 (≈ 121 µM) | 0.02 (≈ 0.0242 µM) | 0.06 (≈ 0.0726 µM) | 0.2 (≈ 0.242 µM) | 1.56 (≈ 1.89 µM) | 0.1 (≈ 0.121 µM) | > 100 | 0.2 (≈ 0.242 µM) | > 100 | ≤ 0.005 | 100 | 0.02 | 2 (≈ 2.42 µM) | 1 (≈ 1.21 µM) | 0.2 | MIC [18]: 0.78; MIC [19]: 0.1; MIC [20]: 0.2 µg/mL (≈ 0.242 µM); MIC [21]: > 100 µg/mL; MIC [22]: 0.5 µg/mL (≈ 0.605 µM); MIC (Escherichia coli SS): 0.78; MIC [23]: 0.2 µg/mL (≈ 0.242 µM)
